Measurements from patent publication US7727956B2, “Deoxonadepsipeptides” (Aicuris GmbH & Co. KG, priority 2004, dated 2010).
≈ marks a conversion by molar mass, not a printed value. Read-outs that look alike come from different tables or passages of the source. Starred links: 1 amine or outer side, 2 acyl side, 3 side chain; linkers in the order of their positions; H or OH if unused. Positions of bridges follow the written chain, without caps; N, C: chain ends. Non-standard residues stand in square brackets, D forms with d. Residues, ends and D or L forms follow the SMILES beside them. X3 = C[Si](C)(C)C[C@H](N)CN([C@@H](C[Si](C)(C)C)C(=O)[*:2])[*:1]; X4 = CC(C)(C)C[C@@H](C(=O)[*:2])N(C[C@@H](N)C[Si](C)(C)C)[*:1]; X1 = CC(C)C[C@@H](C(=O)[*:2])N(C[C@@H](N)C[Si](C)(C)C)[*:1]; Phe(3R-OH) = O=C([C@@H](N[*:1])[C@H](O[*:3])c1ccccc1)[*:2]; X2 = CC(C)(C)C[C@H](N)CN([C@@H](CC(C)(C)C)C(=O)[*:2])[*:1]; Asn(3S-OH) = NC(=O)[C@@H](O)[C@H](N)C(=O)O; Leu(3R-OH) = CC(C)[C@@H](O)[C@H](N)C(=O)O; aThr = C[C@H](O)[C@H](N)C(=O)O

Experiments:
[1] = tested on: Staphylococcus aureus 133; format: cell-based
Description: (§1) Determination of the Minimum Inhibitory Concentration (MIC):
(§2) The MIC is determined in the liquid dilution test in accordance with the NCCLS guidelines. Overnight cultures of Staphylococcus aureus 133, Entercococcus faecalis 27159, E. faecium 4147 and Streptococcus pneumoniae G9a are incubated with the described test substances in a 1:2 dilution series. The MIC determination is carried out with a cell count of 105 microorganisms per ml in Isosensitest medium (Difco, Irvine/USA), with the exception of S. pneumoniae, which is tested in BHI broth (Difco, Irvine/USA) with 10% bovine serum at a cell count of 106 microorganisms per ml. The cultures are incubated at 37° C. for 18-24 hours, S. pneumoniae in the presence of 10% CO2.
(§3) The lowest substance concentration in each case at which no visible bacterial growth occurs any more is defined as the MIC. The MIC values are reported in μg/ml.

[2] = tested on: Streptococcus pneumoniae G9a; format: cell-based
Description: as §1, §2, §3

E. faecalis ICB 27159 = format: cell-based, Entercococcus faecalis
Description: as §1, §2, §3

[3] = Isosensitest medium, 37° C., 18-24 hours
[4] = BHI broth with 10% bovine serum, 37° C., 18-24 hours, 10% CO2

| SMILES | MIC S. aureus 133 [1, 3] [µg/mL] | MIC S. pneumoniae [2, 4] [µg/mL] | MIC E. faecalis ICB 27159 (E. faecalis ICB 27159; [3]) [µg/mL] | MIC S. aureus 133 [1]; 133 [µg/mL] | MIC S. pneumoniae ([2]; G9a) [µg/mL] | MIC E. faecalis ICB 27159 (E. faecalis ICB 27159; ICB 27159) [µg/mL] |
| --- | --- | --- | --- | --- | --- | --- |
| CC[C@H](C)[C@@H]1NC(=O)[C@@H](CCCNC(=N)N)NC(=O)[C@H](CC(C)C)NC(=O)[C@H]([C@H](O)C(C)C)NC(=O)[C@@H](NC(=O)[C@H](CC(C)C)NC[C@@H](N)C[Si](C)(C)C)[C@@H](c2ccccc2)OC(=O)[C@H](CO)NC(=O)[C@H]([C@H](O)C(N)=O)NC(=O)CNC(=O)[C@H]([C@H](C)O)NC1=O [Example 5, N-[(2R)-2-Amino-3-trimethylsilyl-prop-1-yl]de(1-D-leucine) lysobactin trishydro-trifluoroacetate] (H-[X1][Phe(3R-OH)][Leu(3R-OH)]L[dR]I[aThr]G[Asn(3S-OH)]S; ester 2-C) | 0.5 (≈ 0.387 µM) | 0.063 (≈ 0.0487 µM) | 1 (≈ 0.774 µM) |  |  |  |
| CC[C@H](C)[C@@H]1NC(=O)[C@@H](CCCNC(=N)N)NC(=O)[C@H](CC(C)C)NC(=O)[C@H]([C@H](O)C(C)C)NC(=O)[C@@H](NC(=O)[C@H](CC(C)(C)C)NC[C@@H](N)CC(C)(C)C)[C@@H](c2ccccc2)OC(=O)[C@H](CO)NC(=O)[C@H]([C@H](O)C(N)=O)NC(=O)CNC(=O)[C@H]([C@H](C)O)NC1=O [Example 8, N-{N-[(2S)-2-Amino-4,4-dimethylpent-1-yl]-β-tBu-Ala-de(1-D-leucine-2-leucine)-lysobactintris-hydrofluoro-acetate] (H-[X2][Phe(3R-OH)][Leu(3R-OH)]L[dR]I[aThr]G[Asn(3S-OH)]S; ester 2-C) |  |  |  | 0.5 (≈ 0.387 µM) | 0.063 (≈ 0.0488 µM) | 1 (≈ 0.775 µM) |
| CC[C@H](C)[C@@H]1NC(=O)[C@@H](CCCNC(=N)N)NC(=O)[C@H](CC(C)C)NC(=O)[C@H]([C@H](O)C(C)C)NC(=O)[C@@H](NC(=O)[C@H](C[Si](C)(C)C)NC[C@@H](N)C[Si](C)(C)C)[C@@H](c2ccccc2)OC(=O)[C@H](CO)NC(=O)[C@H]([C@H](O)C(N)=O)NC(=O)CNC(=O)[C@H]([C@H](C)O)NC1=O [Example 14, N-{N-[(2R)-2-Amino-3-trimethylsilyl-prop-1-yl]-(β-trimethylsilyl)-Ala]}de(1-D-leucine-2-leucine)-lysobactin tris-hydrotrifluoro-acetate] (H-[X3][Phe(3R-OH)][Leu(3R-OH)]L[dR]I[aThr]G[Asn(3S-OH)]S; ester 2-C) | 0.25 (≈ 0.189 µM) | 0.0156 (≈ 0.0118 µM) | 0.125 (≈ 0.0945 µM) |  |  |  |
| CC[C@H](C)[C@@H]1NC(=O)[C@@H](CCCNC(=N)N)NC(=O)[C@H](CC(C)C)NC(=O)[C@H]([C@H](O)C(C)C)NC(=O)[C@@H](NC(=O)[C@H](CC(C)(C)C)NC[C@@H](N)C[Si](C)(C)C)[C@@H](c2ccccc2)OC(=O)[C@H](CO)NC(=O)[C@H]([C@H](O)C(N)=O)NC(=O)CNC(=O)[C@H]([C@H](C)O)NC1=O [Example 15, N-{N-[(2R)-2-Amino-3-tri-methylsilylprop-1-yl]-(β-tBu-Ala)}-de(1-D-leucine-2-leucine) lysobactin trishydro-trifluoroacetate] (H-[X4][Phe(3R-OH)][Leu(3R-OH)]L[dR]I[aThr]G[Asn(3S-OH)]S; ester 2-C) | 0.5 (≈ 0.383 µM) | 0.063 (≈ 0.0482 µM) | 1 (≈ 0.765 µM) |  |  |  |
